Data reported in ChEMBL document CHEMBL3045939, “Synthesis and evaluation of fused pyrimidine derivatives as anti-inflammatory, antiproliferative and antimicrobial agents” (Med Chem Res, 2012).
Values after ≈ are worked out from the molar mass of the structure shown.

Legend:
Rattus norvegicus [1] = test: Anti-inflammatory activity in Rattus norvegicus Wistar albino (rat) assessed as carrageenan-induced paw volume at 100 mg/kg, po administered 1 hr prior to carrageenan-challenge measured at 1 hr (reference value: 1.2075 +/- 0.0405 mm3); type: functional
Escherichia coli [2] = test: Antimicrobial activity against Escherichia coli ATCC 25922 assessed as reduction in log10 CFU/ml at MIC after 4 hr by time kill study relative to control; type: functional; design: scale not given: the % may be the effect or the level left
Staphylococcus aureus [3] = test: Antimicrobial activity against Staphylococcus aureus ATCC 25923 assessed as reduction in log10 CFU/ml at MIC after 12 hr by time kill study relative to control; type: functional; design: scale not given: the % may be the effect or the level left
Rattus norvegicus [4] = test: Anti-inflammatory activity in Rattus norvegicus Wistar albino (rat) assessed as carrageenan-induced paw volume at 100 mg/kg, po administered 1 hr prior to carrageenan-challenge measured at 5 hr (reference value: 1.24 +/- 0.0754 mm3); type: functional
Staphylococcus aureus [5] = test: Antimicrobial activity against Staphylococcus aureus ATCC 25923 assessed as reduction in log10 CFU/ml at MIC after 24 hr by time kill study relative to control; type: functional; design: scale not given: the % may be the effect or the level left
Pseudomonas aeruginosa [6] = test: Antimicrobial activity against Pseudomonas aeruginosa ATCC 27853 assessed as reduction in log10 CFU/ml at MIC after 2 hr by time kill study relative to control; type: functional; design: scale not given: the % may be the effect or the level left
HeLa = test: Cytotoxicity against Homo sapiens (human) HeLa cells after 24 hr by MTT assay; type: functional, cell-based
Rattus norvegicus [7] = test: Anti-inflammatory activity in Rattus norvegicus Wistar albino (rat) assessed as carrageenan-induced paw volume at 100 mg/kg, po administered 1 hr prior to carrageenan-challenge measured at 2 hr (reference value: 1.4175 +/- 0.1931 mm3); type: functional
Rattus norvegicus [8] = test: Anti-inflammatory activity in Rattus norvegicus Wistar albino (rat) assessed as carrageenan-induced paw volume at 100 mg/kg, po administered 1 hr prior to carrageenan-challenge measured at 4 hr (reference value: 1.2825 +/- 0.0862 mm3); type: functional
Candida albicans [9] = test: Antimicrobial activity against Candida albicans ATCC 24433 assessed as reduction in log10 CFU/ml at MIC after 6 hr by time kill study relative to control; type: functional; design: scale not given: the % may be the effect or the level left
Pseudomonas aeruginosa [10] = test: Antimicrobial activity against Pseudomonas aeruginosa ATCC 27853 assessed as reduction in log10 CFU/ml at MIC after 24 hr by time kill study relative to control; type: functional; design: scale not given: the % may be the effect or the level left
HEp-2 = test: Cytotoxicity against Homo sapiens (human) Hep2 cells after 24 hr by MTT assay; type: functional, cell-based; settings: HEp-2, 24 h
Aspergillus flavus [11] = test: Antimicrobial activity against Aspergillus flavus ATCC 15517 assessed as reduction in log10 CFU/ml at MIC after 6 hr by time kill study relative to control; type: functional; design: scale not given: the % may be the effect or the level left
Rattus norvegicus [12] = test: Anti-inflammatory activity in Rattus norvegicus Wistar albino (rat) assessed as carrageenan-induced paw volume at 100 mg/kg, po administered 1 hr prior to carrageenan-challenge measured at 3 hr (reference value: 1.225 +/- 0.0484 mm3); type: functional
Aspergillus flavus [13] = test: Antimicrobial activity against Aspergillus flavus ATCC 15517 after 48 hr by broth micro dilution assay; type: functional; settings: ATCC 15517, 48 h
Candida albicans [14] = test: Antimicrobial activity against Candida albicans ATCC 24433 assessed as reduction in log10 CFU/ml at MIC after 2 hr by time kill study relative to control; type: functional; design: scale not given: the % may be the effect or the level left
Escherichia coli [15] = test: Antimicrobial activity against Escherichia coli ATCC 25922 assessed as reduction in log10 CFU/ml at MIC after 6 hr by time kill study relative to control; type: functional; design: scale not given: the % may be the effect or the level left
Escherichia coli [16] = test: Antimicrobial activity against Escherichia coli ATCC 25922 after 24 hr by broth micro dilution assay; type: functional; settings: ATCC 25922, 24 h
[17] = Cytotoxicity against Homo sapiens (human) Chang cells after 24 hr by MTT assay; type: functional, cell-based
Aspergillus flavus [18] = test: Antimicrobial activity against Aspergillus flavus ATCC 15517 assessed as reduction in log10 CFU/ml at MIC after 4 hr by time kill study relative to control; type: functional; design: scale not given: the % may be the effect or the level left
Pseudomonas aeruginosa [19] = test: Antimicrobial activity against Pseudomonas aeruginosa ATCC 27853 assessed as reduction in log10 CFU/ml at MIC after 6 hr by time kill study relative to control; type: functional; design: scale not given: the % may be the effect or the level left
Aspergillus flavus [20] = test: Antimicrobial activity against Aspergillus flavus ATCC 15517 assessed as reduction in log10 CFU/ml at MIC after 2 hr by time kill study relative to control; type: functional; design: scale not given: the % may be the effect or the level left
Staphylococcus aureus [21] = test: Antimicrobial activity against Staphylococcus aureus ATCC 25923 assessed as reduction in log10 CFU/ml at MIC after 4 hr by time kill study relative to control; type: functional; design: scale not given: the % may be the effect or the level left
Candida albicans [22] = test: Antimicrobial activity against Candida albicans ATCC 24433 assessed as reduction in log10 CFU/ml at MIC after 24 hr by time kill study relative to control; type: functional; design: scale not given: the % may be the effect or the level left
Pseudomonas aeruginosa [23] = test: Antimicrobial activity against Pseudomonas aeruginosa ATCC 27853 assessed as reduction in log10 CFU/ml at MIC after 4 hr by time kill study relative to control; type: functional; design: scale not given: the % may be the effect or the level left
Pseudomonas aeruginosa [24] = test: Antimicrobial activity against Pseudomonas aeruginosa ATCC 27853 assessed as reduction in log10 CFU/ml at MIC after 12 hr by time kill study relative to control; type: functional; design: scale not given: the % may be the effect or the level left
Staphylococcus aureus [25] = test: Antimicrobial activity against Staphylococcus aureus ATCC 25923 after 24 hr by broth micro dilution assay; type: functional; settings: ATCC 25923, 24 h
Pseudomonas aeruginosa [26] = test: Antimicrobial activity against Pseudomonas aeruginosa ATCC 27853 after 24 hr by broth micro dilution assay; type: functional; settings: ATCC 27853, 24 h
Escherichia coli [27] = test: Antimicrobial activity against Escherichia coli ATCC 25922 assessed as reduction in log10 CFU/ml at MIC after 2 hr by time kill study relative to control; type: functional; design: scale not given: the % may be the effect or the level left
Staphylococcus aureus [28] = test: Antimicrobial activity against Staphylococcus aureus ATCC 25923 assessed as reduction in log10 CFU/ml at MIC after 2 hr by time kill study relative to control; type: functional; design: scale not given: the % may be the effect or the level left
Aspergillus flavus [29] = test: Antimicrobial activity against Aspergillus flavus ATCC 15517 assessed as reduction in log10 CFU/ml at MIC after 24 hr by time kill study relative to control; type: functional; design: scale not given: the % may be the effect or the level left
Escherichia coli [30] = test: Antimicrobial activity against Escherichia coli ATCC 25922 assessed as reduction in log10 CFU/ml at MIC after 12 hr by time kill study relative to control; type: functional; design: scale not given: the % may be the effect or the level left
Candida albicans [31] = test: Antimicrobial activity against Candida albicans ATCC 24433 assessed as reduction in log10 CFU/ml at MIC after 4 hr by time kill study relative to control; type: functional; design: scale not given: the % may be the effect or the level left
Candida albicans [32] = test: Antimicrobial activity against Candida albicans ATCC 24433 after 48 hr by broth micro dilution assay; type: functional; settings: ATCC 24433, 48 h
Staphylococcus aureus [33] = test: Antimicrobial activity against Staphylococcus aureus ATCC 25923 assessed as reduction in log10 CFU/ml at MIC after 6 hr by time kill study relative to control; type: functional; design: scale not given: the % may be the effect or the level left
Candida albicans [34] = test: Antimicrobial activity against Candida albicans ATCC 24433 assessed as reduction in log10 CFU/ml at MIC after 12 hr by time kill study relative to control; type: functional; design: scale not given: the % may be the effect or the level left
Aspergillus flavus [35] = test: Antimicrobial activity against Aspergillus flavus ATCC 15517 assessed as reduction in log10 CFU/ml at MIC after 12 hr by time kill study relative to control; type: functional; design: scale not given: the % may be the effect or the level left
Escherichia coli [36] = test: Antimicrobial activity against Escherichia coli ATCC 25922 assessed as reduction in log10 CFU/ml at MIC after 24 hr by time kill study relative to control; type: functional; design: scale not given: the % may be the effect or the level left
Rattus norvegicus [37] = test: Anti-inflammatory activity in Rattus norvegicus Wistar albino (rat) assessed as inhibition of carrageenan-induced paw edema at 100 mg/kg, po administered 1 hr prior to carrageenan-challenge measured at 2 hr relative to control; type: functional

## O=c1c2cc(Cl)ccc2nc(-c2ccccc2)n1-c1ccc(F)cc1
Rattus norvegicus [1]
  Activity: 1.22 mm3
Escherichia coli [2]
  Activity: 66.7%
Staphylococcus aureus [3]
  Activity: 100%
Rattus norvegicus [4]
  Activity: 1.21 mm3
Staphylococcus aureus [5]
  Activity: 100%
Pseudomonas aeruginosa [6]
  Activity: 66.7%
HeLa
  IC50: < 25 mg/L
Rattus norvegicus [7]
  Activity: 1.2675 mm3
Rattus norvegicus [8]
  Activity: 1.275 mm3
Candida albicans [9]
  Activity: 100%
Pseudomonas aeruginosa [10]
  Activity: 100%
HEp-2
  IC50: 10.8 mg/L (≈ 30.7 µM)
Aspergillus flavus [11]
  Activity: 88.9%
Rattus norvegicus [12]
  Activity: 1.21 mm3
Aspergillus flavus [13]
  MIC: 6.25 mg/L (≈ 17.8 µM)
Candida albicans [14]
  Activity: 44.4%
Escherichia coli [15]
  Activity: 100%
Escherichia coli [16]
  MIC: 0.39 mg/L (≈ 1.11 µM)
[17]
  IC50: 16.6 mg/L (≈ 47.3 µM)
Aspergillus flavus [18]
  Activity: 22.2%
Pseudomonas aeruginosa [19]
  Activity: 100%
Aspergillus flavus [20]
  Activity: 11.1%
Staphylococcus aureus [21]
  Activity: 66.7%
Candida albicans [22]
  Activity: 100%
Pseudomonas aeruginosa [23]
  Activity: 66.7%
Pseudomonas aeruginosa [24]
  Activity: 100%
Staphylococcus aureus [25]
  MIC: 0.39 mg/L (≈ 1.11 µM)
Pseudomonas aeruginosa [26]
  MIC: 0.78 mg/L (≈ 2.22 µM)
Escherichia coli [27]
  Activity: 33.3%
Staphylococcus aureus [28]
  Activity: 33.3%
Aspergillus flavus [29]
  Activity: 100%
Escherichia coli [30]
  Activity: 100%
Candida albicans [31]
  Activity: 66.7%
Candida albicans [32]
  MIC: 1.56 mg/L (≈ 4.45 µM)
Staphylococcus aureus [33]
  Activity: 100%
Candida albicans [34]
  Activity: 100%
Aspergillus flavus [35]
  Activity: 66.7%
Escherichia coli [36]
  Activity: 100%

## O=c1c2cc(Cl)ccc2nc(-c2ccccc2)n1-c1cccc(Cl)c1
Rattus norvegicus [1]
  Activity: 1.1325 mm3
Rattus norvegicus [4]
  Activity: 1.125 mm3
HeLa
  IC50: < 25 mg/L
Rattus norvegicus [7]
  Activity: 1.0625 mm3
Rattus norvegicus [8]
  Activity: 1.0575 mm3
HEp-2
  IC50: < 6.25 mg/L
Rattus norvegicus [12]
  Activity: 1.06 mm3
Aspergillus flavus [13]
  MIC: > 100 mg/L
Escherichia coli [16]
  MIC: 6.25 mg/L (≈ 17 µM)
[17]
  IC50: < 6.25 mg/L
Staphylococcus aureus [25]
  MIC: 3.12 mg/L (≈ 8.5 µM)
Pseudomonas aeruginosa [26]
  MIC: 25 mg/L (≈ 68.1 µM)
Rattus norvegicus [37]
  inhibition in vivo at 100 mg/kg: 86.8%
Candida albicans [32]
  MIC: > 100 mg/L

## CN(C)CCn1c(-c2ccccc2)nc2ccc(Cl)cc2c1=O
Rattus norvegicus [1]
  Activity: 1.1825 mm3
Rattus norvegicus [4]
  Activity: 1.215 mm3
HeLa
  IC50: > 200 mg/L
Rattus norvegicus [8]
  Activity: 1.165 mm3
HEp-2
  IC50: 20.5 mg/L (≈ 62.5 µM)
Rattus norvegicus [12]
  Activity: 1.1875 mm3
Aspergillus flavus [13]
  MIC: 100 mg/L (≈ 305 µM)
Escherichia coli [16]
  MIC: 3.12 mg/L (≈ 9.52 µM)
[17]
  IC50: 33.4 mg/L (≈ 102 µM)
Staphylococcus aureus [25]
  MIC: 1.56 mg/L (≈ 4.76 µM)
Pseudomonas aeruginosa [26]
  MIC: 6.25 mg/L (≈ 19.1 µM)
Rattus norvegicus [37]
  inhibition in vivo at 100 mg/kg: 88.4%
Candida albicans [32]
  MIC: 50 mg/L (≈ 153 µM)

## O=c1c2cc(Cl)ccc2nc(-c2ccccc2)n1-c1ccc(Cl)cc1
Rattus norvegicus [1]
  Activity: 1.135 mm3
Rattus norvegicus [4]
  Activity: 1.1825 mm3
HeLa
  IC50: < 25 mg/L
Rattus norvegicus [7]
  Activity: 1.11 mm3
Rattus norvegicus [8]
  Activity: 1.1425 mm3
HEp-2
  IC50: < 25 mg/L
Rattus norvegicus [12]
  Activity: 1.23 mm3
Aspergillus flavus [13]
  MIC: > 100 mg/L
Escherichia coli [16]
  MIC: 12.5 mg/L (≈ 34 µM)
[17]
  IC50: 6.25 mg/L (≈ 17 µM)
Staphylococcus aureus [25]
  MIC: 3.12 mg/L (≈ 8.5 µM)
Pseudomonas aeruginosa [26]
  MIC: 12.5 mg/L (≈ 34 µM)
Candida albicans [32]
  MIC: > 100 mg/L

## CC(C)Cc1ccc(C(C)C(=O)O)cc1 (centres undefined) [IBUPROFEN]
Rattus norvegicus [37]
  inhibition in vivo at 100 mg/kg: 65.3%
